# Reference: ChEMBL document CHEMBL1201862, “PubChem BioAssay data set” (2004)
# Active and inactive are the calls of the source.
# Tests used:
# [1] = target: Peroxisome proliferator-activated receptor gamma/Nuclear receptor coactivator 3 (Homo sapiens, UniProt P37231); format: functional;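 note: agonist potency for raising coactivator recruitment to the receptor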
# [2] = target: Peroxisome proliferator-activated receptor gamma/Nuclear receptor coactivator 2 (Homo sapiens, UniProt P37231); format: functional;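 note: agonist potency for raising coactivator recruitment to the receptor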
# Sequence of Peroxisome proliferator-activated receptor gamma/Nuclear receptor coactivator 2 (P37231 whole entry): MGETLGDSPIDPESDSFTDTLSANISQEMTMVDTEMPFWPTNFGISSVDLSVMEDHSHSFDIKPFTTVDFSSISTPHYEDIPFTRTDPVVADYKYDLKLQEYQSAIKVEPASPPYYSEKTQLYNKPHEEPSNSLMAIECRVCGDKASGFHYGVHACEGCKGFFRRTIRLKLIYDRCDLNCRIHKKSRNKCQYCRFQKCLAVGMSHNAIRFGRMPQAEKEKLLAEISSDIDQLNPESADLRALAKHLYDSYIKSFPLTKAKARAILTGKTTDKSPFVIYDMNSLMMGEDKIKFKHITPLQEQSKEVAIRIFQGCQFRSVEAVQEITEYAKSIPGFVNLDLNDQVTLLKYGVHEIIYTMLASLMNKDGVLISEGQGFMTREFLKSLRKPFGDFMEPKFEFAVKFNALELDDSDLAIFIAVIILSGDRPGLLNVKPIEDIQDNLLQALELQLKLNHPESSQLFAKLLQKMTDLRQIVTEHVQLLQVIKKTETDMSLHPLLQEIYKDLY
# Sequence of Peroxisome proliferator-activated receptor gamma/Nuclear receptor coactivator 2 (Q15596 whole entry, further chain): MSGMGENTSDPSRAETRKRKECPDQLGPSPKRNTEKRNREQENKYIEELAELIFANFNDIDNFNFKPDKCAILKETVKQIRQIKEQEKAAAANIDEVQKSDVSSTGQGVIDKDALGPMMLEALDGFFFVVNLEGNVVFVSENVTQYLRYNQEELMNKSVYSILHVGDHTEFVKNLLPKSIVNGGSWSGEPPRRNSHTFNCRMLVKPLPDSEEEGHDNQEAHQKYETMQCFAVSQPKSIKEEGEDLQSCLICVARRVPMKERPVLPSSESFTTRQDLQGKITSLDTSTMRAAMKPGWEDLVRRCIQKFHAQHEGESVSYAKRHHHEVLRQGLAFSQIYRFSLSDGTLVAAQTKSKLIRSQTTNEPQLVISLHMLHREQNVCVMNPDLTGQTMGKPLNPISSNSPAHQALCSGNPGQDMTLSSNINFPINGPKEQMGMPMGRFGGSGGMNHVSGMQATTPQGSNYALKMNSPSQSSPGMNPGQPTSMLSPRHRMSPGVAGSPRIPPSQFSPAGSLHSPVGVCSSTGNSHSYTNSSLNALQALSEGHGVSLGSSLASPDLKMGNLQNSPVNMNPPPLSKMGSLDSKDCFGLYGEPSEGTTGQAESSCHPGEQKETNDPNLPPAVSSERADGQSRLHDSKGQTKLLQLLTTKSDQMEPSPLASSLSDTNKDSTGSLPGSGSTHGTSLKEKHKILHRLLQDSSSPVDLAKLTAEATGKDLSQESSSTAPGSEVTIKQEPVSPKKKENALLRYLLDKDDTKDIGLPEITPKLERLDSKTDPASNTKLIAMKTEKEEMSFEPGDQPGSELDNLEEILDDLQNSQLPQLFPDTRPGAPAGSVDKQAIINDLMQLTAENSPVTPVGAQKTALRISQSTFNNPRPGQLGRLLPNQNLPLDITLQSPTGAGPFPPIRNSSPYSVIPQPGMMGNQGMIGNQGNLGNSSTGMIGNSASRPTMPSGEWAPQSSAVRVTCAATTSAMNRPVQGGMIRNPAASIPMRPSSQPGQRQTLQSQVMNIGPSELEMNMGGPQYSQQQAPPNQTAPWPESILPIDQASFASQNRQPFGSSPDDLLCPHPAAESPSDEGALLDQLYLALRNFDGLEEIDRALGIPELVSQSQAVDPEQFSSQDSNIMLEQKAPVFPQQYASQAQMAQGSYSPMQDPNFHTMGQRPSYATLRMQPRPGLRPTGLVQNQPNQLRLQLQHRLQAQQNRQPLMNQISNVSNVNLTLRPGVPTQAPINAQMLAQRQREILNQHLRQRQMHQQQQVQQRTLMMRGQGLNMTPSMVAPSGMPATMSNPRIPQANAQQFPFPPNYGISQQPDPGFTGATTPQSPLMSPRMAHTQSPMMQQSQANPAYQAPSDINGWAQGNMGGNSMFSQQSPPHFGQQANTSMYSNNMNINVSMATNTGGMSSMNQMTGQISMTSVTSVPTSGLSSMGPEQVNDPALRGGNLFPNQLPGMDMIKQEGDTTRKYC
# [3] = target: Peroxisome proliferator-activated receptor gamma/Nuclear receptor coactivator 1 (Homo sapiens, UniProt P37231); format: functional;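 note: agonist potency as compounds enhance coactivator SRC-1 recruitment to PPARgamma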
# Sequence of Peroxisome proliferator-activated receptor gamma/Nuclear receptor coactivator 1 (P37231 whole entry): as the sequence (P37231 whole entry) above
# Sequence of Peroxisome proliferator-activated receptor gamma/Nuclear receptor coactivator 1 (Q15788 whole entry, further chain): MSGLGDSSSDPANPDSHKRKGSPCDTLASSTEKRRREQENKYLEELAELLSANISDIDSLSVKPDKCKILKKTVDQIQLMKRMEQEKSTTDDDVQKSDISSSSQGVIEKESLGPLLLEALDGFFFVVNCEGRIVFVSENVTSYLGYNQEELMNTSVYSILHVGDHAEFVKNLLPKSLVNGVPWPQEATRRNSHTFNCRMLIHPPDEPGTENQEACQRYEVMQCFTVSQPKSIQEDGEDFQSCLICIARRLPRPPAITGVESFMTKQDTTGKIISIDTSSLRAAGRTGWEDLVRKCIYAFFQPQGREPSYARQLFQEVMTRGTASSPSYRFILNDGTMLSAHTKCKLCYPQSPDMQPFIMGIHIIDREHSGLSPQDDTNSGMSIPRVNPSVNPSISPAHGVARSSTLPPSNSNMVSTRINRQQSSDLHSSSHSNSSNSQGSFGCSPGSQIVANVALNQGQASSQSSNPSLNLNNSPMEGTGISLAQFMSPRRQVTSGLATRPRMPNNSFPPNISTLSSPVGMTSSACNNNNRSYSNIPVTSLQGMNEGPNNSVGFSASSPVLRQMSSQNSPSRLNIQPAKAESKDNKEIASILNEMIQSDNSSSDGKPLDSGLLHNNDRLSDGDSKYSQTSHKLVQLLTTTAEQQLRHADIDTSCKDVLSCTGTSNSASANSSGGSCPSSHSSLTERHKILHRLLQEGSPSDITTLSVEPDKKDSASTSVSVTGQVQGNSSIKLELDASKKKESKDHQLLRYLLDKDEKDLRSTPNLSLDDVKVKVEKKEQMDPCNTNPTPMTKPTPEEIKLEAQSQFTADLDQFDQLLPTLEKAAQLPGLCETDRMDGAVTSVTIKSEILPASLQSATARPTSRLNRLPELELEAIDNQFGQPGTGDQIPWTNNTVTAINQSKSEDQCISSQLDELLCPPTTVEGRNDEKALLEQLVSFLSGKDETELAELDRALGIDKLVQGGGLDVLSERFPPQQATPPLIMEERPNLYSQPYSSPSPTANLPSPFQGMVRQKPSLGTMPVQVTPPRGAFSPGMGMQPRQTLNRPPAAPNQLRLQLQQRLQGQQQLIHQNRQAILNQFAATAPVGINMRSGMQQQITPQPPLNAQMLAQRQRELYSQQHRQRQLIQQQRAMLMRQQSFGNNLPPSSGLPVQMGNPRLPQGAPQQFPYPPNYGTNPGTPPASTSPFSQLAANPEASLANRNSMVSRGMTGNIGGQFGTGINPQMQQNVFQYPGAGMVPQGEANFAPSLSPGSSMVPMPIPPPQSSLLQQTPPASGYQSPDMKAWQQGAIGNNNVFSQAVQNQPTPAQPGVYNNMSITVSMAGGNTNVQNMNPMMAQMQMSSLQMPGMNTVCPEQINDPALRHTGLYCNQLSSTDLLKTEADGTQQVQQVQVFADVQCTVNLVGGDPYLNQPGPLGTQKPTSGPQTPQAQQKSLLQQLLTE
# [4] = target: Acyl-homoserine lactone acylase PvdQ (Pseudomonas aeruginosa (strain LESB58), UniProt Q9I194); assay: PvdQ acylase enzyme activity blockers – biochemical, fluorescence, plate reader and imaging, cherry-picks, dose response (AID 493231)
# Sequence of Acyl-homoserine lactone acylase PvdQ (Q9I194 24-193 limits assumed): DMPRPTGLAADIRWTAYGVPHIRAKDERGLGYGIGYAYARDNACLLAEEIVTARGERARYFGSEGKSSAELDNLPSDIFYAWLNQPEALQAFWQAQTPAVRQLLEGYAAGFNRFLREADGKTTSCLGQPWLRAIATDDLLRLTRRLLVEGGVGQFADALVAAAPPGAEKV
# Sequence of Acyl-homoserine lactone acylase PvdQ (Q9I194 217-762 limits assumed): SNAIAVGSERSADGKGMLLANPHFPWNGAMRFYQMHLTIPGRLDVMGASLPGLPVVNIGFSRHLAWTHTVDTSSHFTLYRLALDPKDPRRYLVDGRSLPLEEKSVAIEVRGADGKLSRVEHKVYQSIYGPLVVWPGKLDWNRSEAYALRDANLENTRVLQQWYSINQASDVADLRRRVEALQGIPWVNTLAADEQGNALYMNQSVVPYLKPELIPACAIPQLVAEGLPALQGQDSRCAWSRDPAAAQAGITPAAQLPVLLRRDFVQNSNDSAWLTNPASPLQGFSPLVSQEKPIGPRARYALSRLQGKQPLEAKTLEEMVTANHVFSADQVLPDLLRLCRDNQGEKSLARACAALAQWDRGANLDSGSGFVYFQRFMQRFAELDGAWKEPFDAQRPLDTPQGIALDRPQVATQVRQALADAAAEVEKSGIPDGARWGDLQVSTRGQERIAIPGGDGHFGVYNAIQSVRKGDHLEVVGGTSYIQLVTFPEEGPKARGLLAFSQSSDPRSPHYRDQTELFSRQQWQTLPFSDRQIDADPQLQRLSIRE
# Vero [5] = assay: cells; format: functional; settings: Chlorocebus sabaeus
# HEK293 [6] = assay: inhibition of NOD1-driven NF-kB reporter – cell-based, luminescence, uHTS, primary screen (AID 1578); format: functional; settings: Homo sapiens
# Vero [7] = assay: mammalian cell viability reduction – secondary assay, cytotoxicity control for West Nile virus antiviral project, dose response (AID 1650); format: functional; settings: Chlorocebus sabaeus
# HEK293 [8] = assay: cells; format: functional, cell-based; settings: Homo sapiens
# HEK293 [9] = assay: cells; format: functional, cell-based; settings: Homo sapiens; remark: listed apart in the source
# [10] = A Cell Based Secondary Assay To Explore Cytotoxicity of Compounds that Sensitize Mycobacterium Tuberculosis to Beta-Lactam Antibiotics.; format: functional
# Vero [11] = assay: cells; format: functional, cell-based; settings: Chlorocebus sabaeus
# HEK293 [12] = assay: NOD2 signaling inhibitors in MDP-stimulated cells, cell-based, uHTS, luminescence (AID 2001); format: functional; settings: Homo sapiens
# [13] = M. tuberculosis H37Rv growth inhibitors, H37Rv strain (AID 1626); format: functional
# Beta-galactosidase = Beta-galactosidase (Escherichia coli, UniProt Q8VNN2); assay: PubChem AID 485352; format: functional
# [14] = target: T1, Type-1 angiotensin II receptor (Homo sapiens, UniProt P30556); assay: antagonism of angiotensin II type 1 receptor – cell-based, uHTS hits, selectivity assay for APJ receptor antagonist project, dose response (AID 463214); format: functional;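 note: antagonist potency against angiotensin II stimulated AT1 response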
# T1 sequence (P30556 whole entry): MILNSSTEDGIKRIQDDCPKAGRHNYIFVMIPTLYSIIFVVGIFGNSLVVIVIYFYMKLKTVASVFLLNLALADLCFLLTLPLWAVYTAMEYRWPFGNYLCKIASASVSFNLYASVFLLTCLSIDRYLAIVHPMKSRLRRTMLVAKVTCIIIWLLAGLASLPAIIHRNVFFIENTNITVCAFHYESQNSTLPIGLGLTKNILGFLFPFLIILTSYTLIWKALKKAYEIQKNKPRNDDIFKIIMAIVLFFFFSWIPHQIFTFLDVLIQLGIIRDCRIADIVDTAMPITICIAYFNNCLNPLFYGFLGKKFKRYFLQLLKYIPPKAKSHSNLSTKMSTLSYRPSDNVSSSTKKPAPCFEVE
# [15] = CCR5-tropic HIV-1 fusion blockers – cell-based, CCR5-tropic Env, dose response (AID 2279); format: functional
# [16] = target: T2, Rac GTPase-activating protein 1 (Homo sapiens, UniProt Q9H0H5); assay: blockers of MgcRacGAP-driven Rac1 GTP hydrolysis – biochemical, ADP Hunter fluorescence, primary and confirmatory, confirmation (AID 624330); format: functional
# T2 sequence (Q9H0H5 whole entry): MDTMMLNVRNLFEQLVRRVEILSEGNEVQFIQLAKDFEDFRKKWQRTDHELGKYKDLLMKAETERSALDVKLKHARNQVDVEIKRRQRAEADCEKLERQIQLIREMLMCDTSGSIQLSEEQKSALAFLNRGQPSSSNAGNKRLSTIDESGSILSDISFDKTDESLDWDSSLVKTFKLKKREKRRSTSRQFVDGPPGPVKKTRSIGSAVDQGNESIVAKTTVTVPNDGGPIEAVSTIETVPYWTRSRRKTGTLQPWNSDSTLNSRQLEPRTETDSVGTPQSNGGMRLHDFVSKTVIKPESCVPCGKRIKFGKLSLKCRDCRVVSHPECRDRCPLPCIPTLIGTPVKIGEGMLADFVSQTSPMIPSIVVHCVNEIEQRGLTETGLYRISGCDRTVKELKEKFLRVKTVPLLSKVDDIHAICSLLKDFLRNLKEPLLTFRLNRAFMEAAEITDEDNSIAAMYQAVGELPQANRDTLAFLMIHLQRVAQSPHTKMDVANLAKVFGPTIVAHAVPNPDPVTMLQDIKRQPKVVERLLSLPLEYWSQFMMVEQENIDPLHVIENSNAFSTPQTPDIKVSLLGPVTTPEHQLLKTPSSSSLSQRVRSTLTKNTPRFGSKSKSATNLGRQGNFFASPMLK
# [17] = target: DNA dC->dU-editing enzyme APOBEC-3A (Homo sapiens, UniProt P31941); assay: A3A deaminase inhibition for selectivity – biochemical, dose response (AID 504722); format: functional
# Sequence of DNA dC->dU-editing enzyme APOBEC-3A (P31941 whole entry): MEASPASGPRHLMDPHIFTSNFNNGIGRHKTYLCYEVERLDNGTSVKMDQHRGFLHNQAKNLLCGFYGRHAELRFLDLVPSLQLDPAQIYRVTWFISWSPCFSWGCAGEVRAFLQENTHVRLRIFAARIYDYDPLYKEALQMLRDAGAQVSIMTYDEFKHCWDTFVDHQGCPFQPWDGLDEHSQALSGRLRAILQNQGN
# [18] = target: DNA dC->dU-editing enzyme APOBEC-3G (Homo sapiens, UniProt Q9HC16); assay: Dose Response confirmation of small molecule APOBEC3G DNA Deaminase Inhibitors via a fluorescence-based single-stranded DNA deaminase assay. [Related pubchem assays (depositor defined):AID493012, AID493028]; format: functional
compound,measurement,setting,value
CC(C)c1ccc(OCC(=O)NC(=S)Nc2ccc3c4c(cccc24)CC3)cc1,EC50,[1],> 79.4 µM (not active)
same,EC50,[2],> 79.4 µM (not active)
same,EC50,[3],> 79.4 µM (not active)
CCOc1ccc(-n2cccc2C=O)cc1,AC50,[4],7.29 µM (active)
Cc1cc(NC(=O)c2cc(F)c(F)cc2Cl)no1,AC50,[4],24 µM (active)
Cn1c(/C=C/c2ccc(Br)cc2)c([N+](=O)[O-])c(=O)n(C)c1=O,CC50,Vero [5],12.1 µM (active)
same,EC50,HEK293 [6],14.4 µM (active)
same,CC50,Vero [7],16 µM (active)
same,IC50,HEK293 [8],4.31 µM (active)
same,IC50,HEK293 [9],14.3 µM (active)
same,CC50,[10],21.9 µM (active)
same,IC50,Vero [11],23.9 µM (active)
same,IC50,HEK293 [12],4.87 µM (active)
COc1ccc(NC2(c3ccc(Cl)cc3)C(=O)c3ccccc3C2=O)cc1,IC50,[13],> 100 µM (active)
same,EC50,Beta-galactosidase,> 40 µM (inactive)
same,IC50,[14],17.9 µM (active)
CCn1c(SCC(=O)Nc2ccc(Cl)cc2)nc2nc3c(cc2c1=O)CCCC3,EC50,[1],> 79.4 µM (not active)
same,EC50,[2],> 79.4 µM (not active)
same,EC50,[3],> 79.4 µM (not active)
CC(C)(C)c1ccc2c(c1)OC(C(=O)N/N=C\c1ccc(-c3cccc(C(=O)O)c3)o1)CO2 (stereo not drawn),IC50,[15],> 50 µM (active)
Sc1nnc(-c2cccnc2)n1/N=C/c1cccs1,IC50,[16],58 µM (active)
same,IC50,[17],> 100 µM (inactive)
same,IC50,[18],2.75 µM (active)
